Results from the NIST ThermoML archive (doi:10.1016/j.jct.2012.05.009).

Experiment: mn = molality of the nth substance listed, in mol/kg
Conditions: 101 kPa, Liquid, Vibrating tube method

CC(=O)CCCCn1c(=O)c2c(ncn2C)n(C)c1=O [3,7-dimethyl-1-(5-oxohexyl)-3,7-dihydro-1H-purine-2,6-dione] + O
mass density [kg/m3]
Conditions	m1 = 0.09736	m1 = 0.0976	m1 = 0.09842	m1 = 0.09851	m1 = 0.1012
293.15 K	1003.77	1003.77	1003.81	1003.83	1003.97
298.15 K	1002.51	1002.51	1002.55	1002.57	1002.7
303.15 K	1001.02	1001.02	1001.06	1001.08	1001.21
308.15 K	999.319	999.32	999.356	999.381	999.508
